Tests used:
Type in all cases: in vivo
[1] = test system: morningglory (Ipomoea spp.); test: Test A pre-/postemergence plant response
How it was run: (§1)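 Injury scores (0, no effect; 100, complete control) come from visual comparison with untreated controls roughly ten days post-treatment. Test chemicals in a surfactant-containing non-phytotoxic solvent were applied as a directed soil spray preemergence and to one- to two-leaf seedlings postemergence.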

[2] = test system: velvetleaf (Abutilon theophrasti); test: Test A pre-/postemergence plant response
How it was run: as §1

[3] = test system: pigweed (Amaranthus retroflexus); test: Test A pre-/postemergence plant response
How it was run: as §1

[4] = test system: wheat (Triticum aestivum); test: Test A pre-/postemergence plant response
How it was run: as §1

[5] = test system: large crabgrass (Digitaria sanguinalis); test: Test A pre-/postemergence plant response
How it was run: as §1

[6] = test system: giant foxtail (Setaria faberii); test: Test A pre-/postemergence plant response
How it was run: as §1

[7] = test system: corn (Zea mays); test: Test A pre-/postemergence plant response
How it was run: as §1

[8] = test system: barnyardgrass (Echinochloa crus-galli); test: Test A pre-/postemergence plant response
How it was run: as §1

[9] = test system: umbrella sedge (Cyperus difformis); test: Test B flooded paddy test; settings: for Plant response rating, Flood, Sedge, Umbrella: 250 g ai/ha, flooded paddy test, visual rating on 0 to 100 scale (0 no effect, 100 complete control) after 13 to 15 days; for Plant response rating, Sedge, Umbrella: Flood (flooded paddy test), 13 to 15 days; for Sedge, Umbrella plant response rating: Flood, 31 g ai/ha, scale 0 to 100 (0 no effect, 100 complete control)
How it was run: (§2)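 Ratings are visual, 0–100 (100 = complete control), taken versus untreated controls 13 to 15 days after treatment in the greenhouse. Compound went straight into paddy water held 3 cm above soil, applied to 2-leaf-stage plants of four species.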

[10] = test system: ducksalad (Heteranthera limosa); test: Test B flooded paddy test; settings: for Plant response rating, Flood, Ducksalad: 250 g ai/ha, flooded paddy test, visual rating on 0 to 100 scale (0 no effect, 100 complete control) after 13 to 15 days; for Plant response rating, Ducksalad: Flood (flooded paddy test), 13 to 15 days; for Ducksalad plant response rating: Flood, 31 g ai/ha, scale 0 to 100 (0 no effect, 100 complete control)
How it was run: as §2

[11] = test system: rice (Oryza sativa); test: Test B flooded paddy test; settings: for Plant response rating, Flood, Rice: 250 g ai/ha, flooded paddy test, visual rating on 0 to 100 scale (0 no effect, 100 complete control) after 13 to 15 days; for Plant response rating, Rice: Flood (flooded paddy test), 13 to 15 days; for Rice plant response rating: Flood, 31 g ai/ha, scale 0 to 100 (0 no effect, 100 complete control)
How it was run: as §2

[12] = test system: barnyardgrass (Echinochloa crus-galli); test: Test B flooded paddy test; settings: for Plant response rating, Flood, Barnyardgrass: 250 g ai/ha, flooded paddy test, visual rating on 0 to 100 scale (0 no effect, 100 complete control) after 13 to 15 days; for Plant response rating, Barnyardgrass: Flood (flooded paddy test), 13 to 15 days; for Barnyardgrass plant response rating: Flood, 31 g ai/ha, scale 0 to 100 (0 no effect, 100 complete control)
How it was run: as §2

[13] = Postemergence, 125 g ai/ha, 0 to 100 scale where 0 is no effect and 100 is complete control
[14] = Postemergence, 500 g ai/ha, 0 to 100 scale, 0 = no effect, 100 = complete control, approx. ten days
[15] = Preemergence, 125 g ai/ha, 0 to 100 scale, 0 = no effect, 100 = complete control
[16] = Preemergence, 500 g ai/ha, visual injury, 0 to 100 scale (0 no effect, 100 complete control), approx. ten days
[17] = 62 g ai/ha, scale of 0 to 100 where 0 is no effect and 100 is complete control
[18] = Postemergence, 500 g ai/ha, visual injury, 0 to 100 scale (0 no effect, 100 complete control), approx. ten days
[19] = Preemergence, 500 g ai/ha, 0 to 100 scale, 0 = no effect, 100 = complete control
[20] = 125 g ai/ha, scale 0 to 100, 0 is no effect, 100 is complete control
[21] = Postemergence, 125 g ai/ha, visual injury, 0 to 100 scale (0 no effect, 100 complete control), approx. ten days
[22] = 62 g ai/ha, scale 0 to 100, 0 is no effect, 100 is complete control

CCCn1c(-c2ccc(OC)cc2)ncc(C(=O)C2=C(O)CCCC2=O)c1=O [Compound 112]
Plant response rating, Morningglory [1, 13]: 90
Plant response rating, Morningglory [1, 14]: 100
Plant response rating, Morningglory [1, 15]: 0
Plant response rating, Morningglory [1, 16]: 80
Plant response rating, Velvetleaf [2, 13]: 100
Plant response rating, Velvetleaf [2, 14]: 100
Plant response rating, Velvetleaf [2, 15]: 40
Plant response rating, Velvetleaf [2, 16]: 70
Plant response rating, Pigweed [3, 13]: 90
Plant response rating, Pigweed [3, 14]: 100
Plant response rating, Pigweed [3, 15]: 20
Plant response rating, Pigweed [3, 16]: 100
Plant response rating, Wheat [4, 13]: 0
Plant response rating, Wheat [4, 14]: 10
Plant response rating, Wheat [4, 15]: 0
Plant response rating, Wheat [4, 16]: 0
Plant response rating, Crabgrass, Large [5, 13]: 80
Plant response rating, Crabgrass, Large [5, 14]: 90
Plant response rating, Crabgrass, Large [5, 15]: 60
Plant response rating, Crabgrass, Large [5, 16]: 100
Plant response rating, Foxtail, Giant [6, 13]: 70
Plant response rating, Foxtail, Giant [6, 14]: 80
Plant response rating, Foxtail, Giant [6, 15]: 20
Plant response rating, Foxtail, Giant [6, 16]: 60
Plant response rating, Corn [7, 13]: 0
Plant response rating, Corn [7, 14]: 20
Plant response rating, Corn [7, 15]: 0
Plant response rating, Corn [7, 16]: 0
Plant response rating, Barnyardgrass [8, 13]: 60
Plant response rating, Barnyardgrass [8, 14]: 90
Plant response rating, Barnyardgrass [8, 15]: 0
Plant response rating, Barnyardgrass [8, 16]: 80
Plant response rating, Flood, Sedge, Umbrella [9]: 90
Plant response rating, Sedge, Umbrella [9, 17]: 85
Plant response rating, Flood, Ducksalad [10]: 95
Plant response rating, Ducksalad [10, 17]: 85
Plant response rating, Flood, Rice [11]: 15
Plant response rating, Rice [11, 17]: 0
Plant response rating, Flood, Barnyardgrass [12]: 40
Plant response rating, Barnyardgrass [12, 17]: 35

CCCn1c(-c2ccco2)ncc(C(=O)C2=C(O)C3CCC(C3)C2=O)c1=O (centres unmarked) [Compound 230]
Plant response rating, Morningglory [1, 13]: 70
Morningglory plant response rating [1, 18]: 90
Plant response rating, Morningglory [1, 15]: 0
Plant response rating, Morningglory [1, 19]: 20
Plant response rating, Velvetleaf [2, 13]: 100
Velvetleaf plant response rating [2, 18]: 100
Plant response rating, Velvetleaf [2, 15]: 60
Plant response rating, Velvetleaf [2, 19]: 80
Plant response rating, Pigweed [3, 13]: 80
Pigweed plant response rating [3, 18]: 90
Plant response rating, Pigweed [3, 19]: 80
Plant response rating, Wheat [4, 13]: 0
Wheat plant response rating [4, 18]: 0
Plant response rating, Wheat [4, 15]: 0
Plant response rating, Wheat [4, 19]: 0
Plant response rating, Crabgrass, Large [5, 13]: 80
Crabgrass, Large plant response rating [5, 18]: 90
Plant response rating, Crabgrass, Large [5, 15]: 30
Plant response rating, Crabgrass, Large [5, 19]: 90
Plant response rating, Foxtail, Giant [6, 13]: 30
Foxtail, Giant plant response rating [6, 18]: 50
Plant response rating, Foxtail, Giant [6, 15]: 40
Plant response rating, Foxtail, Giant [6, 19]: 50
Plant response rating, Corn [7, 13]: 0
Corn plant response rating [7, 18]: 20
Plant response rating, Corn [7, 15]: 0
Plant response rating, Corn [7, 19]: 0
Plant response rating, Barnyardgrass [8, 13]: 70
Barnyardgrass plant response rating [8, 18]: 90
Plant response rating, Barnyardgrass [8, 15]: 10
Plant response rating, Barnyardgrass [8, 19]: 80
Plant response rating, Flood, Sedge, Umbrella [9]: 75
Plant response rating, Sedge, Umbrella [9, 17]: 30
Plant response rating, Sedge, Umbrella [9, 20]: 40
Sedge, Umbrella plant response rating [9]: 0
Plant response rating, Flood, Ducksalad [10]: 0
Plant response rating, Ducksalad [10, 17]: 0
Plant response rating, Ducksalad [10, 20]: 0
Ducksalad plant response rating [10]: 0
Plant response rating, Flood, Rice [11]: 45
Plant response rating, Rice [11, 17]: 20
Plant response rating, Rice [11, 20]: 30
Rice plant response rating [11]: 0
Plant response rating, Flood, Barnyardgrass [12]: 40
Plant response rating, Barnyardgrass [12, 17]: 0
Plant response rating, Barnyardgrass [12, 20]: 20
Barnyardgrass plant response rating [12]: 0

Cc1cc(Cl)ccc1-n1c(-c2ccccc2)ncc(C(=O)C2=C(O)CCCC2=O)c1=O [Compound 43]
Morningglory plant response rating [1, 21]: 20
Plant response rating, Morningglory [1, 14]: 80
Plant response rating, Morningglory [1, 15]: 0
Plant response rating, Morningglory [1, 16]: 10
Velvetleaf plant response rating [2, 21]: 100
Plant response rating, Velvetleaf [2, 14]: 100
Plant response rating, Velvetleaf [2, 15]: 60
Plant response rating, Velvetleaf [2, 16]: 100
Pigweed plant response rating [3, 21]: 100
Plant response rating, Pigweed [3, 14]: 100
Plant response rating, Pigweed [3, 15]: 90
Plant response rating, Pigweed [3, 16]: 100
Wheat plant response rating [4, 21]: 0
Plant response rating, Wheat [4, 14]: 0
Plant response rating, Wheat [4, 15]: 0
Plant response rating, Wheat [4, 16]: 0
Crabgrass, Large plant response rating [5, 21]: 70
Plant response rating, Crabgrass, Large [5, 14]: 90
Plant response rating, Crabgrass, Large [5, 15]: 50
Plant response rating, Crabgrass, Large [5, 16]: 100
Foxtail, Giant plant response rating [6, 21]: 60
Plant response rating, Foxtail, Giant [6, 14]: 80
Plant response rating, Foxtail, Giant [6, 15]: 10
Plant response rating, Foxtail, Giant [6, 16]: 70
Corn plant response rating [7, 21]: 0
Plant response rating, Corn [7, 14]: 50
Plant response rating, Corn [7, 15]: 0
Plant response rating, Corn [7, 16]: 0
Barnyardgrass plant response rating [8, 21]: 70
Plant response rating, Barnyardgrass [8, 14]: 90
Plant response rating, Barnyardgrass [8, 15]: 10
Plant response rating, Barnyardgrass [8, 16]: 80
Plant response rating, Flood, Sedge, Umbrella [9]: 80
Plant response rating, Sedge, Umbrella [9, 22]: 30
Plant response rating, Flood, Ducksalad [10]: 80
Plant response rating, Ducksalad [10, 22]: 70
Plant response rating, Flood, Rice [11]: 40
Plant response rating, Rice [11, 22]: 0
Plant response rating, Flood, Barnyardgrass [12]: 20
Plant response rating, Barnyardgrass [12, 22]: 20

COc1ccc(-n2c(-c3cccc(Br)c3)ncc(C(=O)C3=C(O)CCCC3=O)c2=O)cc1 [Compound 176]
Plant response rating, Morningglory [1, 13]: 0
Morningglory plant response rating [1, 18]: 50
Plant response rating, Morningglory [1, 15]: 0
Plant response rating, Morningglory [1, 19]: 20
Plant response rating, Velvetleaf [2, 13]: 80
Velvetleaf plant response rating [2, 18]: 90
Plant response rating, Velvetleaf [2, 15]: 10
Plant response rating, Velvetleaf [2, 19]: 50
Plant response rating, Pigweed [3, 13]: 100
Pigweed plant response rating [3, 18]: 100
Plant response rating, Pigweed [3, 15]: 60
Plant response rating, Pigweed [3, 19]: 100
Plant response rating, Wheat [4, 13]: 0
Wheat plant response rating [4, 18]: 0
Plant response rating, Wheat [4, 15]: 0
Plant response rating, Wheat [4, 19]: 0
Plant response rating, Crabgrass, Large [5, 13]: 10
Crabgrass, Large plant response rating [5, 18]: 60
Plant response rating, Crabgrass, Large [5, 15]: 0
Plant response rating, Crabgrass, Large [5, 19]: 20
Plant response rating, Foxtail, Giant [6, 13]: 10
Foxtail, Giant plant response rating [6, 18]: 70
Plant response rating, Foxtail, Giant [6, 15]: 10
Plant response rating, Foxtail, Giant [6, 19]: 50
Plant response rating, Corn [7, 13]: 0
Corn plant response rating [7, 18]: 10
Plant response rating, Corn [7, 15]: 0
Plant response rating, Corn [7, 19]: 0
Plant response rating, Barnyardgrass [8, 13]: 50
Barnyardgrass plant response rating [8, 18]: 90
Plant response rating, Barnyardgrass [8, 15]: 10
Plant response rating, Barnyardgrass [8, 19]: 30
Plant response rating, Sedge, Umbrella [9, 20]: 85
Sedge, Umbrella plant response rating [9]: 70
Plant response rating, Ducksalad [10, 20]: 75
Ducksalad plant response rating [10]: 40
Plant response rating, Rice [11, 20]: 20
Rice plant response rating [11]: 15
Plant response rating, Barnyardgrass [12, 20]: 0
Barnyardgrass plant response rating [12]: 0
